Results published in patent US6914045B2, “Glycopeptide antibiotics” (Wyeth Holdings Corporation, priority 2001, dated 2005).
≈ marks a conversion by molar mass, not a printed value.

Legend:
Streptococcus sp. = assay: in vitro antibacterial evaluation, MIC by broth dilution; assay type: cell-based; conditions: broth dilution, 18 hours at 35° C.
Procedure, shortened: (§1)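 Broth dilution per NCCLS standard M7-A2 in Muller-Hinton II […], with an inoculum of 5×10^5 CFU/mL and antibiotic spanning 64-0.06 μg/mL. The MIC is the lowest concentration that inhibits growth of the organism.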

Enterococcus sp. = assay: as above; assay type: cell-based; conditions: broth dilution, 18 hours at 35° C.
Procedure, shortened: as §1

Staphylococcus sp. = assay: as above; assay type: cell-based; conditions: broth dilution, 18 hours at 35° C.; for MIC Staphylococcus aureus (ATCC 29213): strain ATCC 29213; for MIC Staphylococcus aureus (GC 1131): strain GC 1131; for MIC Staphylococcus aureus (GC 3051): strain GC 3051; for MIC Staphylococcus aureus (GC 3053): strain GC 3053; for MIC Staphylococcus aureus (GC 4541): strain GC 4541; for MIC Staphylococcus aureus (GC 4542): strain GC 4542; for MIC Staphylococcus aureus-SMITH (GC 4543): strain GC 4543; for MIC Staphylococcus aureus (GC 4544): strain GC 4544; for MIC Staphylococcus aureus (GC 4545): strain GC 4545; for MIC Staphylococcus haemolyticus (GC 4546): strain GC 4546; for MIC Coagulase Negative Staphylococcus (GC 4547): strain GC 4547; for MIC Coagulase Negative Staphylococcus (GC 4548): strain GC 4548; for MIC Coagulase Negative Staphylococcus (GC 4549): strain GC 4549; for MIC Coagulase Negative Staphylococcus (GC 4551): strain GC 4551; for MIC Coagulase Negative Staphylococcus (GC 6257): strain GC 6257
Procedure, shortened: as §1

Escherichia coli = assay: as above; assay type: cell-based; conditions: 18 hours at 35° C.
Procedure, shortened: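 Broth dilution in Muller-Hinton II medium per NCCLS standard M7-A2, with an inoculum of 5×10^5 CFU/mL and antibiotic tested over 64-0.06 μg/mL. MIC was taken as the lowest concentration inhibiting visible growth.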

[1] = anatomic pathology (histopathology of heart and kidney) in mice; assay type: in vivo; conditions: CD-1 mice, 20 mg/kg intravenously daily for 9 days, necropsy day 10, microscopic histopathology
Description: Samples of tissues from necropsied mice were formalin-fixed, paraffin-embedded, sectioned, stained with hematoxylin and eosin, and examined microscopically. Histopathologic findings were recorded. These findings were subjectively graded on a scale corresponding to slight, mild, moderate, marked and severe as compared to untreated controls.

[2] = Enterococcus faecalis (ATCC 29212)
[3] = Enterococcus faecalis (GC 4552)
[4] = Enterococcus faecalis (GC 4553)
[5] = Enterococcus faecalis (GC 4554)
[6] = Enterococcus faecalis (GC 6189)

SMILES: CC(c1ccccc1)C1NC(=O)CNC(=O)C(CO)NC(=O)C(C(O)C2CN(Cc3ccc(C(=O)O)cc3)C(=N)N2C2OC(CO)C(O)C(O)C2O)NC(=O)C(C(O)C2CNC(=N)N2)NC(=O)C(Cc2ccc(OC3OC(CO)C(OC4OC(CO)C(O)C(O)C4O)C(O)C3O)cc2)NC1=O (stereo not drawn) [Example 69, Cyclo[glycyl-β-methylphenylalanyl-O-(4-O-hexopyranosylhexopyranosyl)tyrosyl-3-(2-iminoimidazolidin-4-yl)seryl-3-[1-(4-carboxybenzyl)-2-imino-3-hexopyranosylimidazolidin-4-yl]-serylseryl]]
- MIC Streptococcus agalactiae (GC 4564) (Streptococcus sp.): 128 µg/mL (≈ 89.5 µM)
- MIC Streptococcus pneumoniae (ATCC 6301) (Streptococcus sp.): 128 µg/mL (≈ 89.5 µM)
- MIC Streptococcus pneumoniae (GC 1894) (Streptococcus sp.): 128 µg/mL (≈ 89.5 µM)
- MIC Streptococcus pneumoniae (GC 4565) (Streptococcus sp.): 128 µg/mL (≈ 89.5 µM)
- MIC Streptococcus pyogenes (GC 4563) (Streptococcus sp.): >128 µg/mL
- MIC Streptococcus pneumoniae (ATCC 6301) (Streptococcus sp.; strain ATCC 6301): 128 µg/mL (≈ 89.5 µM)
- MIC Streptococcus pneumoniae (GC 1894) (Streptococcus sp.; strain GC 1894): 128 µg/mL (≈ 89.5 µM)
- MIC Streptococcus pyogenes (GC 4563) (Streptococcus sp.; strain GC 4563): >128 µg/mL
- MIC Streptococcus agalactiae (GC 4564) (Streptococcus sp.; strain GC 4564): 128 µg/mL (≈ 89.5 µM)
- MIC Streptococcus pneumoniae (GC 4565) (Streptococcus sp.; strain GC 4565): 128 µg/mL (≈ 89.5 µM)
- MIC Enterococcus avium (GC 4558) (Enterococcus sp.; Enterococcus avium (GC 4558)): 128 µg/mL (≈ 89.5 µM)
- MIC Enterococcus faecalis (ATCC 29212) (Enterococcus sp.; [2]): >128 µg/mL
- MIC Enterococcus faecalis (GC 4552) (Enterococcus sp.; [3]): >128 µg/mL
- MIC Enterococcus faecalis (GC 4553) (Enterococcus sp.; [4]): >128 µg/mL
- MIC Enterococcus faecalis (GC 4554) (Enterococcus sp.; [5]): >128 µg/mL
- MIC Enterococcus faecalis (GC 6189) (Enterococcus sp.; [6]): >128 µg/mL
- MIC Enterococcus faecium (GC 2243) (Enterococcus sp.; Enterococcus faecium (GC 2243)): >128 µg/mL
- MIC Enterococcus faecium (GC 4556) (Enterococcus sp.; Enterococcus faecium (GC 4556)): >128 µg/mL
- MIC Enterococcus faecium (GC 4557) (Enterococcus sp.; Enterococcus faecium (GC 4557)): 128 µg/mL (≈ 89.5 µM)
- MIC Enterococcus avium (GC 4558) (Enterococcus sp.): 128 µg/mL (≈ 89.5 µM)
- MIC Enterococcus faecalis (ATCC 29212) (Enterococcus sp.): >128 µg/mL
- MIC Enterococcus faecalis (GC 2242) (Enterococcus sp.): >128 µg/mL
- MIC Enterococcus faecalis (GC 2691) (Enterococcus sp.): >128 µg/mL
- MIC Enterococcus faecalis (GC 3059) (Enterococcus sp.): >128 µg/mL
- MIC Enterococcus faecalis (GC 4552) (Enterococcus sp.): >128 µg/mL
- MIC Enterococcus faecalis (GC 4553) (Enterococcus sp.): >128 µg/mL
- MIC Enterococcus faecalis (GC 4554) (Enterococcus sp.): >128 µg/mL
- MIC Enterococcus faecalis (GC 6189) (Enterococcus sp.): >128 µg/mL
- MIC Enterococcus faecium (GC 2243) (Enterococcus sp.): >128 µg/mL
- MIC Enterococcus faecium (GC 4556) (Enterococcus sp.): >128 µg/mL
- MIC Enterococcus faecium (GC 4557) (Enterococcus sp.): 128 µg/mL (≈ 89.5 µM)
- MIC Enterococcus faecalis (GC 2242) (Enterococcus sp.; strain GC 2242): >128 µg/mL
- MIC Enterococcus faecalis (GC 2691) (Enterococcus sp.; strain GC 2691): >128 µg/mL
- MIC Enterococcus faecalis (GC 3059) (Enterococcus sp.; strain GC 3059): >128 µg/mL
- MIC Staphylococcus aureus (ATCC 29213) (Staphylococcus sp.): >128 µg/mL
- MIC Staphylococcus aureus (GC 1131) (Staphylococcus sp.): >128 µg/mL
- MIC Staphylococcus aureus (GC 3051) (Staphylococcus sp.): >128 µg/mL
- MIC Staphylococcus aureus (GC 3053) (Staphylococcus sp.): >128 µg/mL
- MIC Staphylococcus aureus (GC 4541) (Staphylococcus sp.): >128 µg/mL
- MIC Staphylococcus aureus (GC 4542) (Staphylococcus sp.): >128 µg/mL
- MIC Staphylococcus aureus-SMITH (GC 4543) (Staphylococcus sp.): >128 µg/mL
- MIC Staphylococcus aureus (GC 4544) (Staphylococcus sp.): >128 µg/mL
- MIC Staphylococcus aureus (GC 4545) (Staphylococcus sp.): >128 µg/mL
- MIC Staphylococcus haemolyticus (GC 4546) (Staphylococcus sp.): >128 µg/mL
- MIC Coagulase Negative Staphylococcus (GC 4547) (Staphylococcus sp.): >128 µg/mL
- MIC Coagulase Negative Staphylococcus (GC 4548) (Staphylococcus sp.): >128 µg/mL
- MIC Coagulase Negative Staphylococcus (GC 4549) (Staphylococcus sp.): >128 µg/mL
- MIC Coagulase Negative Staphylococcus (GC 4551) (Staphylococcus sp.): >128 µg/mL
- MIC Coagulase Negative Staphylococcus (GC 6257) (Staphylococcus sp.): >128 µg/mL
- MIC Escherichia coli (ATCC 25922) (Escherichia coli): >128 µg/mL
- MIC Escherichia coli (GC 4559) (Escherichia coli): >128 µg/mL
- MIC Escherichia coli (GC 4560) (Escherichia coli): >128 µg/mL
- Anatomical Pathology (Day 10), Heart [1]: 0
- Anatomical Pathology (Day 10), Kidney [1]: 0

SMILES: CC(c1ccccc1)C1NC(=O)CNC(=O)C(CO)NC(=O)C(C(O)C2CN(Cc3ccc(C(C)(C)C)cc3)C(=N)N2C2OC(CO)C(O)C(O)C2O)NC(=O)C(C(O)C2CNC(=N)N2)NC(=O)C(Cc2ccc(OC3OC(CO)C(OC4OC(CO)C(O)C(O)C4O)C(O)C3O)cc2)NC1=O (stereo not drawn) [Example 60, Cyclo[glycyl-β-methylphenylalanyl-O-(4-O-hexopyranosylhexopyranosyl)tyrosl-(2-iminoimidazolidin-4-yl)seryl-3-[1-(4-tert-butylbenzyl)-3-hexopyranosyl-2-iminoimidazolidin-4-yl]-serylseryl]]
- MIC Streptococcus agalactiae (GC 4564) (Streptococcus sp.): >128 µg/mL
- MIC Streptococcus pneumoniae (ATCC 6301) (Streptococcus sp.): 128 µg/mL (≈ 88.8 µM)
- MIC Streptococcus pneumoniae (GC 1894) (Streptococcus sp.): 64 µg/mL (≈ 44.4 µM)
- MIC Streptococcus pneumoniae (GC 4565) (Streptococcus sp.): 128 µg/mL (≈ 88.8 µM)
- MIC Streptococcus pyogenes (GC 4563) (Streptococcus sp.): >128 µg/mL
- MIC Streptococcus pneumoniae (ATCC 6301) (Streptococcus sp.; strain ATCC 6301): 128 µg/mL (≈ 88.8 µM)
- MIC Streptococcus pneumoniae (GC 1894) (Streptococcus sp.; strain GC 1894): 64 µg/mL (≈ 44.4 µM)
- MIC Streptococcus pyogenes (GC 4563) (Streptococcus sp.; strain GC 4563): >128 µg/mL
- MIC Streptococcus agalactiae (GC 4564) (Streptococcus sp.; strain GC 4564): >128 µg/mL
- MIC Streptococcus pneumoniae (GC 4565) (Streptococcus sp.; strain GC 4565): 128 µg/mL (≈ 88.8 µM)
- MIC Enterococcus avium (GC 4558) (Enterococcus sp.; Enterococcus avium (GC 4558)): 128 µg/mL (≈ 88.8 µM)
- MIC Enterococcus faecalis (ATCC 29212) (Enterococcus sp.; [2]): >128 µg/mL
- MIC Enterococcus faecalis (GC 4552) (Enterococcus sp.; [3]): >128 µg/mL
- MIC Enterococcus faecalis (GC 4553) (Enterococcus sp.; [4]): 128 µg/mL (≈ 88.8 µM)
- MIC Enterococcus faecalis (GC 4554) (Enterococcus sp.; [5]): >128 µg/mL
- MIC Enterococcus faecalis (GC 6189) (Enterococcus sp.; [6]): >128 µg/mL
- MIC Enterococcus faecium (GC 2243) (Enterococcus sp.; Enterococcus faecium (GC 2243)): >128 µg/mL
- MIC Enterococcus faecium (GC 4556) (Enterococcus sp.; Enterococcus faecium (GC 4556)): >128 µg/mL
- MIC Enterococcus faecium (GC 4557) (Enterococcus sp.; Enterococcus faecium (GC 4557)): 128 µg/mL (≈ 88.8 µM)
- MIC Enterococcus avium (GC 4558) (Enterococcus sp.): 128 µg/mL (≈ 88.8 µM)
- MIC Enterococcus faecalis (ATCC 29212) (Enterococcus sp.): >128 µg/mL
- MIC Enterococcus faecalis (GC 2242) (Enterococcus sp.): >128 µg/mL
- MIC Enterococcus faecalis (GC 2691) (Enterococcus sp.): >128 µg/mL
- MIC Enterococcus faecalis (GC 3059) (Enterococcus sp.): >128 µg/mL
- MIC Enterococcus faecalis (GC 4552) (Enterococcus sp.): >128 µg/mL
- MIC Enterococcus faecalis (GC 4553) (Enterococcus sp.): 128 µg/mL (≈ 88.8 µM)
- MIC Enterococcus faecalis (GC 4554) (Enterococcus sp.): >128 µg/mL
- MIC Enterococcus faecalis (GC 6189) (Enterococcus sp.): >128 µg/mL
- MIC Enterococcus faecium (GC 2243) (Enterococcus sp.): >128 µg/mL
- MIC Enterococcus faecium (GC 4556) (Enterococcus sp.): >128 µg/mL
- MIC Enterococcus faecium (GC 4557) (Enterococcus sp.): 128 µg/mL (≈ 88.8 µM)
- MIC Enterococcus faecalis (GC 2242) (Enterococcus sp.; strain GC 2242): >128 µg/mL
- MIC Enterococcus faecalis (GC 2691) (Enterococcus sp.; strain GC 2691): >128 µg/mL
- MIC Enterococcus faecalis (GC 3059) (Enterococcus sp.; strain GC 3059): >128 µg/mL
- MIC Staphylococcus aureus (ATCC 29213) (Staphylococcus sp.): >128 µg/mL
- MIC Staphylococcus aureus (GC 1131) (Staphylococcus sp.): >128 µg/mL
- MIC Staphylococcus aureus (GC 3051) (Staphylococcus sp.): >128 µg/mL
- MIC Staphylococcus aureus (GC 3053) (Staphylococcus sp.): >128 µg/mL
- MIC Staphylococcus aureus (GC 4541) (Staphylococcus sp.): >128 µg/mL
- MIC Staphylococcus aureus (GC 4542) (Staphylococcus sp.): >128 µg/mL
- MIC Staphylococcus aureus-SMITH (GC 4543) (Staphylococcus sp.): >128 µg/mL
- MIC Staphylococcus aureus (GC 4544) (Staphylococcus sp.): >128 µg/mL
- MIC Staphylococcus aureus (GC 4545) (Staphylococcus sp.): >128 µg/mL
- MIC Staphylococcus haemolyticus (GC 4546) (Staphylococcus sp.): >128 µg/mL
- MIC Coagulase Negative Staphylococcus (GC 4547) (Staphylococcus sp.): >128 µg/mL
- MIC Coagulase Negative Staphylococcus (GC 4548) (Staphylococcus sp.): >128 µg/mL
- MIC Coagulase Negative Staphylococcus (GC 4549) (Staphylococcus sp.): >128 µg/mL
- MIC Coagulase Negative Staphylococcus (GC 4551) (Staphylococcus sp.): >128 µg/mL
- MIC Coagulase Negative Staphylococcus (GC 6257) (Staphylococcus sp.): >128 µg/mL
- MIC Escherichia coli (ATCC 25922) (Escherichia coli): >128 µg/mL
- MIC Escherichia coli (GC 4559) (Escherichia coli): >128 µg/mL
- MIC Escherichia coli (GC 4560) (Escherichia coli): 16 µg/mL (≈ 11.1 µM)
- Anatomical Pathology (Day 10), Heart [1]: 0
- Anatomical Pathology (Day 10), Kidney [1]: 0
